Activity calls are given as the source filed them. The rule behind the calls is not given here. Non-standard residues stand in square brackets, D forms with d. Residues, ends and D or L forms follow the SMILES beside them. Aad = N[C@@H](CCCC(=O)O)C(=O)O
What was measured:
MCF7 [1] = assay: Cytotoxicity against human MCF7 cells assessed as inhibition of cell growth incubated for 1 hr by MTT assay; assay type: functional, cell-based; conditions: MCF7, 1 h
[2] = Cytotoxicity against RG cells (unknown origin) assessed as inhibition of cell growth incubated for 1 hr by MTT assay; assay type: functional, cell-based
A549 = assay: Cytotoxicity against human A549 cells assessed as inhibition of cell growth incubated for 1 hr by MTT assay; assay type: functional, cell-based; conditions: A549, 1 h
[3] = Cytotoxicity against HK-2 cells assessed as inhibition of cell growth incubated for 1 hr by MTT assay; assay type: toxicity, cell-based; conditions: human
[4] = Therapeutic index, ratio of HC10 for mouse RBC to IC50 for cytotoxicity against human HeLa cells; assay type: toxicity, cell-based; conditions: mouse RBC and HeLa cells, read-out: TI
[5] = Therapeutic index, ratio of HC10 for mouse RBC to IC50 for cytotoxicity against human MCF7 cells; assay type: toxicity, cell-based; conditions: mouse RBC and MCF7 cells, read-out: TI
[6] = Therapeutic index, ratio of HC10 for mouse RBC to IC50 for cytotoxicity against RG cells (unknown origin); assay type: toxicity, cell-based; conditions: mouse RBC and RG cells, read-out: TI
[7] = Therapeutic index, ratio of HC10 for mouse RBC to IC50 for cytotoxicity against human A549 cells; assay type: toxicity, cell-based; conditions: mouse RBC and A549 cells, read-out: TI
[8] = Drug uptake in human MCF7 cells at 5 uM incubated for 1 hr by laser confocal scanning microscopic analysis; assay type: ADME, cell-based; conditions: mcf7, 1 h
[9] = Drug uptake in HK-2 cells at 5 uM incubated for 1 hr by laser confocal scanning microscopic analysis; assay type: ADME, cell-based; conditions: human, hk-2, 1 h
[10] = Stability in mouse serum assessed as compound remaining at 10 mM incubated for 6 hrs by RP-HPLC analysis; assay type: ADME, cell-free; conditions: read-out: Stability
MCF7 [11] = assay: Cytotoxicity against human MCF7 cells assessed as cell death at 1 times IC50 measured within 30 mins by MTT assay relative to control; assay type: functional; conditions: 0.5 h
MCF7 [12] = assay: Cytotoxicity against human MCF7 cells assessed as cell viability at 2 times IC50 measured for 30 mins by MTT assay relative to control; assay type: functional; conditions: 0.5 h
Cell membrane [13] = assay: Disruption of cell membrane in human MCF7 cells assessed as LDH release at 40 uM incubated for 1 hr by fluorescence based microplate reader analysis relative to control; assay type: cell membranes
Cell membrane [14] = assay: Induction of morphological changes in cell membrane of human MCF7 cells assessed as membrane damage at 1 times IC50 incubated for 1 hr by SEM analysis; assay type: cell membranes
Cell membrane [15] = assay: Induction of morphological changes in cell membrane of human MCF7 cells assessed as cell depression at 1 times IC50 incubated for 1 hr by SEM analysis; assay type: cell membranes
Cell membrane [16] = assay: Induction of morphological changes in cell membrane of human MCF7 cells assessed as severe membrane rupture at 1 times IC50 incubated for 1 hr by SEM analysis; assay type: cell membranes
Cell membrane [17] = assay: Induction of morphological changes in cell membrane of human MCF7 cells assessed as intracellular outflow at 1 times IC50 incubated for 1 hr by SEM analysis; assay type: cell membranes
Cell membrane [18] = assay: Disruption of cell membrane integrity in human MCF7 cells assessed as increase in PI fluorescence at 2 times IC50 measured after 0 to 120 mins by laser confocal scanning microscopic analysis; assay type: cell membranes; conditions: time 0-120 min
Cell membrane [19] = assay: Induction of cell membrane damage in human MCF7 cells assessed as protein leakage at 1 to 2 times IC50 measured after 0.5 to 6 hrs by UV based analysis; assay type: cell membranes; conditions: time 0.5-6 hrs
MCF7 [20] = assay: Effect on cell cycle progression in human MCF7 cells at 1 times IC50 measured after 1 hr by PI/RNase staining based flow cytometry analysis; assay type: functional
MCF7 [21] = assay: Induction of cell cycle arrest at G0/G1 phase in human MCF7 cells at 1 times IC50 measured after 24 hrs by PI/RNase staining based flow cytometry analysis; assay type: functional
MCF7 [22] = assay: Induction of apoptosis in human MCF7 cells assessed as live cells at 1 times IC50 measured after 24 hrs by Annexin V-FITC staining based flow cytometry analysis (reference value: 92%); assay type: functional
MCF7 [23] = assay: Induction of apoptosis in human MCF7 cells assessed as early apoptotic cells at 1 times IC50 measured after 24 hrs by Annexin V-FITC staining based flow cytometry analysis (reference value: 0.014%); assay type: functional
MCF7 [24] = assay: Induction of apoptosis in human MCF7 cells assessed as late apoptotic cells at 1 times IC50 measured after 24 hrs by Annexin V-FITC staining based flow cytometry analysis (reference value: 1.60%); assay type: functional
MCF7 [25] = assay: Induction of apoptosis in human MCF7 cells assessed as dead cells at 1 times IC50 measured after 24 hrs by Annexin V-FITC staining based flow cytometry analysis (reference value: 6.41%); assay type: functional
MCF7 [26] = assay: Antimigratory activity in human MCF7 cells assessed as reduction in cell migration at 1 times IC50 measured after 24 hrs by scratch-wound healing assay; assay type: functional, cell-based
MCF7 [27] = assay: Anti-invasion activity in human MCF7 cells assessed as reduction in number of passing cells on polycarbonate membrane at 1 times IC50 measured after 24 hrs by crystal violet staining based transwell assay; assay type: functional, cell-based
MCF7 [28] = assay: Cytotoxicity against human MCF7 cells assessed as reduction in cell survival at 0.5 to 1 times IC50 incubated for 24 hrs in presence of 1 uM paclitaxel by MTT assay; assay type: functional, cell-based
4T1 [29] = assay: Antitumor activity against mouse 4T1 cells implanted in female Balb/c mouse assessed as reduction in tumor weight at 12 micromol/kg, ip administered every other day for 2 weeks and measured every 2 days relative to control; assay type: functional; parameters: scale not given: the % may be the effect or the level left; conditions: dose 12 µmol/kg
[30] = Toxicity in female Balb/c mouse implanted with mouse 4T1 cells assessed as reduction in body weight at 12 micromol/kg, ip administered every other day for 2 weeks and measured every 2 days; assay type: organism-based; conditions: in vivo, 336 h, dose 12 µmol/kg
[31] = Toxicity in female Balb/c mouse implanted with mouse 4T1 cells assessed as pathological changes in spleen at 12 micromol/kg, ip administered every other day for 2 weeks by H and E staining based analysis; assay type: organism-based; conditions: in vivo, 336 h, dose 12 µmol/kg
[32] = Toxicity in female Balb/c mouse implanted with mouse 4T1 cells assessed as pathological changes in lung at 12 micromol/kg, ip administered every other day for 2 weeks by H and E staining based analysis; assay type: organism-based; conditions: in vivo, 336 h, dose 12 µmol/kg
[33] = Toxicity in female Balb/c mouse implanted with mouse 4T1 cells assessed as pathological changes in kidney at 12 micromol/kg, ip administered every other day for 2 weeks by H and E staining based analysis; assay type: organism-based; conditions: in vivo, 336 h, dose 12 µmol/kg
4T1 [34] = assay: Antitumor activity against mouse 4T1 cells implanted in female Balb/c mouse assessed as increase in tumor cell apoptosis at 12 micromol/kg, ip administered every other day for 2 weeks by H and E staining based analysis; assay type: functional, organism-based; conditions: dose 12.0 µmol/kg
4T1 [35] = assay: Antitumor activity against mouse 4T1 cells implanted in female Balb/c mouse assessed as increase in tumor cell necrosis at 12 micromol/kg, ip administered every other day for 2 weeks by H and E staining based analysis; assay type: functional, organism-based; conditions: dose 12.0 µmol/kg
[36] = Acute toxicity in ip dosed female Balb/c mouse administered as single dose and measured for 7 days by karber method; assay type: organism-based; conditions: in vivo, time 7 day
[37] = Acute toxicity in female Balb/c mouse assessed as cellular swelling in liver at approximately LD50 administered as single ip dose by H and E staining based analysis; assay type: organism-based; conditions: in vivo

Row | SMILES | IC50 (MCF7 [1]) [µM] | IC50 [2] [µM] | IC50 (A549) [µM] | IC50 at 1 h [3] [µM] | selectivity ratio [4] | selectivity ratio [5] | selectivity ratio [6] | selectivity ratio [7] | Drug uptake [8] | Drug uptake [9] | remaining at 6 h, 10000 µM [10] [%] | Activity (MCF7 [11]) [%] | Activity (MCF7 [12]) [%] | Activity (Cell membrane [13]) [%] | Activity (Cell membrane [14]) | Activity (Cell membrane [15]) | Activity (Cell membrane [16]) | Activity (Cell membrane [17]) | Activity (Cell membrane [18]) | Activity (Cell membrane [19]) | also measured
1 | CC(C)C[C@H](NC(=O)[C@H](CCCCN)NC(=O)[C@H](CCCCN)NC(=O)[C@H](CC(C)C)NC(=O)[C@H](CC(C)C)NC(=O)[C@H](CCCCN)NC(=O)[C@H](CCCCN)NC(=O)[C@H](CC(C)C)NC(=O)[C@H](CC(C)C)NC(=O)[C@H](CCCCN)NC(=O)[C@H](CCCCN)NC(=O)[C@H](CC(C)C)NC(=O)[C@@H](N)CC(C)C)C(=O)N[C@@H](CCC(=O)O)C(N)=O (H-LLKKLLKKLLKKLE-NH2) | 21.4 | 21.3 | 14.4 | 59.3 | 32.1 | 14.2 | 14.2 | 21.1 | Active | Not Active | > 60 | ~50 | ~30 | 74.1 | Active | Active | Active | Active | Active | Active | Activity (MCF7 [20]): inactive; Activity (MCF7 [21]): Active; Activity (MCF7 [22]): 57.2%; Activity (MCF7 [23]): 18%; Activity (MCF7 [24]): 19.1%; Activity (MCF7 [25]): 5.69%; Activity (MCF7 [26]): Active; Activity (MCF7 [27]): Active; Activity (MCF7 [28]): Active; Activity (4T1 [29]): 33.4%; Activity [30]: Non-Toxic; Activity [31]: Non-Toxic; Activity [32]: Non-Toxic; Activity [33]: Non-Toxic; Activity (4T1 [34]): Active; Activity (4T1 [35]): Active; LD50 at 168 h [36]: 79.9 mg/kg; Activity [37]: Toxic
2 | CC(C)C[C@H](NC(=O)[C@H](CC(C)C)NC(=O)[C@H](CCCCN)NC(=O)[C@H](CCCCN)NC(=O)[C@H](CC(C)C)NC(=O)[C@H](CC(C)C)NC(=O)[C@H](CCCCN)NC(=O)[C@H](CCCCN)NC(=O)[C@H](CC(C)C)NC(=O)[C@H](CC(C)C)NC(=O)[C@H](CCCCN)NC(=O)[C@H](CCCCN)NC(=O)[C@H](CC(C)C)NC(=O)[C@@H](N)CC(C)C)C(N)=O (H-LLKKLLKKLLKKLL-NH2) | 4.76 | 6.41 | 3.65 | 5.4 | 1.83 | 2.27 | 1.69 | 2.96 | Active | Active | > 60 | ~50 | ~30 | 82 | Active | Active | Active | Active | Active | Active | Activity (MCF7 [20]): inactive; Activity (MCF7 [21]): Active; Activity (MCF7 [22]): 58.1%; Activity (MCF7 [23]): 18.9%; Activity (MCF7 [24]): 19.2%; Activity (MCF7 [25]): 3.79%; Activity (MCF7 [26]): Active; Activity (MCF7 [27]): Active; Activity (MCF7 [28]): Active; Activity (4T1 [29]): 28.4%; Activity [30]: Non-Toxic; Activity [31]: Non-Toxic; Activity [32]: Non-Toxic; Activity [33]: Non-Toxic; Activity (4T1 [34]): Active; Activity (4T1 [35]): Active; LD50 at 168 h [36]: 50.2 mg/kg; Activity [37]: Toxic
3 | CC(C)C[C@H](NC(=O)[C@H](CCCCN)NC(=O)[C@H](CCCCN)NC(=O)[C@H](CC(C)C)NC(=O)[C@H](CC(C)C)NC(=O)[C@H](CCCCN)NC(=O)[C@H](CCCCN)NC(=O)[C@H](CC(C)C)NC(=O)[C@H](CC(C)C)NC(=O)[C@H](CCCCN)NC(=O)[C@H](CCCCN)NC(=O)[C@H](CC(C)C)NC(=O)[C@@H](N)CC(C)C)C(=O)N[C@@H](CCCC(=O)O)C(N)=O (H-LLKKLLKKLLKKL[Aad]-NH2) | 15.7 | 20.1 | 10.3 | 38.7 | 35.7 | 16.3 | 12.7 | 24.9 | Active | Not Active | > 60 | ~50 | ~30 | 82.3 | Active | Active | Active | Active | Active | Active | Activity (MCF7 [20]): inactive; Activity (MCF7 [21]): Active; Activity (MCF7 [22]): 55.9%; Activity (MCF7 [23]): 25.9%; Activity (MCF7 [24]): 13.8%; Activity (MCF7 [25]): 4.4%; Activity (MCF7 [26]): Active; Activity (MCF7 [27]): Active; Activity (MCF7 [28]): Active; Activity (4T1 [29]): 52.4%; Activity [30]: Non-Toxic; Activity [31]: Non-Toxic; Activity [32]: Non-Toxic; Activity [33]: Non-Toxic; Activity (4T1 [34]): Active; Activity (4T1 [35]): Active; LD50 at 168 h [36]: 84 mg/kg; Activity [37]: Toxic

Reference: ChEMBL document CHEMBL5584231, “Rational design of a new short anticancer peptide with good potential for cancer treatment” (Eur J Med Chem, 2024)
